Measurements as given in ChEMBL document CHEMBL3132769, “Fragment growing to retain or alter the selectivity of anchored kinase hinge-binding fragments” (Medchemcomm, 2014).

What was measured:
[1] = molecular target: Fibroblast growth factor receptor 1 (Homo sapiens) (UniProt P11362); test: Inhibition of human FGFR1 catalytic domain expressed in baculovirus assessed as substrate phosphorylation using fluorescence-labelled peptides as substrate at 8 uM after 90 mins by microfluidic peptide phosphorylation assay
[2] = molecular target: Aurora kinase B (Homo sapiens) (UniProt Q96GD4); test: Inhibition of human full length AurB expressed in baculovirus assessed as substrate phosphorylation using fluorescence-labelled peptides as substrate at 8 uM after 90 mins by microfluidic peptide phosphorylation assay
[3] = molecular target: MAP kinase-activated protein kinase 2 (Homo sapiens) (UniProt P49137); test: Inhibition of human full length MAPKAPK2 expressed in baculovirus assessed as substrate phosphorylation using fluorescence-labelled peptides as substrate at 8 uM after 90 mins by microfluidic peptide phosphorylation assay
[4] = molecular target: Tyrosine-protein kinase Fer (Homo sapiens) (UniProt P16591); test: Inhibition of human FER catalytic domain expressed in baculovirus assessed as substrate phosphorylation using fluorescence-labelled peptides as substrate at 2 uM after 90 mins by microfluidic peptide phosphorylation assay
[5] = molecular target: Tyrosine-protein kinase ABL1 (Homo sapiens) (UniProt P00519); test: Inhibition of human full-length ABL expressed in baculovirus assessed as substrate phosphorylation using fluorescence-labelled peptides as substrate at 2 uM after 90 mins by microfluidic peptide phosphorylation assay
[6] = molecular target: Dual specificity tyrosine-phosphorylation-regulated kinase 1A (Rattus norvegicus) (UniProt Q63470); test: Inhibition of rat full length DYRK1a expressed in Escherichia coli cell assessed as substrate phosphorylation using fluorescence-labelled peptides as substrate at 1000 uM after 90 mins by microfluidic peptide phosphorylation assay
[7] = molecular target: T1, Protein kinase C zeta type (Homo sapiens) (UniProt Q05513); test: Inhibition of human full length PKC zeta expressed in baculovirus assessed as substrate phosphorylation using fluorescence-labelled peptides as substrate at 1000 uM after 90 mins by microfluidic peptide phosphorylation assay
T1 sequence (whole entry): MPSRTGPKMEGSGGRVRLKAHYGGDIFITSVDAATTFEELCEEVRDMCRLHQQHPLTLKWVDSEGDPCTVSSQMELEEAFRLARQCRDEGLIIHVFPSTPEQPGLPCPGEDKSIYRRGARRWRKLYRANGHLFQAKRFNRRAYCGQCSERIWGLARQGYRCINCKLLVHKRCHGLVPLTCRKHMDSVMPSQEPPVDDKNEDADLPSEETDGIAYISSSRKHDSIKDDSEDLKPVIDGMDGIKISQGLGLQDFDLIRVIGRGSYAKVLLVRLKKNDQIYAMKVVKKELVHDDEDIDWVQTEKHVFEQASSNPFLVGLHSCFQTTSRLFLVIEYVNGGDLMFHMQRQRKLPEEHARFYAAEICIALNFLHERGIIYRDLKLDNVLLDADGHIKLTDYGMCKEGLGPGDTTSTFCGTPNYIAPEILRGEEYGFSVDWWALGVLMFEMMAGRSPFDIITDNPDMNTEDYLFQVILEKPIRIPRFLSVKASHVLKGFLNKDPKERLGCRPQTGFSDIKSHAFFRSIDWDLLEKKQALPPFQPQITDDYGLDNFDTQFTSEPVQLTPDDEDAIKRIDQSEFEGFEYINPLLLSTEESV

[8] = molecular target: Calcium/calmodulin-dependent protein kinase type II subunit beta (Homo sapiens) (UniProt Q13554); test: Inhibition of human CAMK2 beta catalytic domain expressed in baculovirus assessed as substrate phosphorylation using fluorescence-labelled peptides as substrate at 1000 uM after 90 mins by microfluidic peptide phosphorylation assay
[9] = molecular target: T2, Serine/threonine-protein kinase DCLK2 (Homo sapiens) (UniProt Q8N568); test: Inhibition of human full length DCAMKL2 expressed in baculovirus assessed as substrate phosphorylation using fluorescence-labelled peptides as substrate at 0.1 uM after 90 mins by microfluidic peptide phosphorylation assay
T2 sequence (whole entry): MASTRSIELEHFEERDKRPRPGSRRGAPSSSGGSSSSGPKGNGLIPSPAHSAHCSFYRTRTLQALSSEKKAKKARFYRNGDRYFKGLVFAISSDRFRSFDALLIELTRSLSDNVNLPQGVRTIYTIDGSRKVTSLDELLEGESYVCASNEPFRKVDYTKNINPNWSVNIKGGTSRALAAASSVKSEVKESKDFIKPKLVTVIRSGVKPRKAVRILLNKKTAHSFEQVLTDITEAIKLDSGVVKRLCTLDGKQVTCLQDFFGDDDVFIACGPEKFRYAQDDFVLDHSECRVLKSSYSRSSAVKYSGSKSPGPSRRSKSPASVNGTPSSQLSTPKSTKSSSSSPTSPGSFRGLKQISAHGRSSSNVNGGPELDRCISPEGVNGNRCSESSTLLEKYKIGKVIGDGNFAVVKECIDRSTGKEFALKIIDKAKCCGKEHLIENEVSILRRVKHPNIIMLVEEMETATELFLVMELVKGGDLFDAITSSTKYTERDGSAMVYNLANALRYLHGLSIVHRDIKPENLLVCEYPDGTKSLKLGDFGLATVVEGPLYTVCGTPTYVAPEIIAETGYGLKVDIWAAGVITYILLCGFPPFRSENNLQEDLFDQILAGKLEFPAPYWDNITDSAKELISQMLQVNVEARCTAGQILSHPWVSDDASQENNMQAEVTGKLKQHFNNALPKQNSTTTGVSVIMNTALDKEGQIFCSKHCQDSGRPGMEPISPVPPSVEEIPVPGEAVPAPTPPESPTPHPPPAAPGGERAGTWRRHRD

[10] = molecular target: Fibroblast growth factor receptor 4 (Homo sapiens) (UniProt P22455); test: Inhibition of human FGFR4 catalytic domain expressed in baculovirus assessed as substrate phosphorylation using fluorescence-labelled peptides as substrate at […] after 90 mins by microfluidic peptide phosphorylation assay
[11] = test system: Fibroblast growth factor receptor 2 (Homo sapiens), P21802 [N549H]; test: Inhibition of human FGFR2 N549H mutant catalytic domain expressed in baculovirus assessed as substrate phosphorylation using fluorescence-labelled peptides as substrate at 420 uM after 90 mins by microfluidic peptide phosphorylation assay
[12] = molecular target: Mitogen-activated protein kinase 14 (Homo sapiens) (UniProt Q16539); test: Inhibition of human truncated p38 alpha expressed in Escherichia coli cell assessed as substrate phosphorylation using fluorescence-labelled peptides as substrate at 420 uM after 90 mins by microfluidic peptide phosphorylation assay
[13] = molecular target: Calcium/calmodulin-dependent protein kinase type II subunit beta (Homo sapiens) (UniProt Q13554); test: Inhibition of human CAMK2 beta catalytic domain expressed in baculovirus assessed as substrate phosphorylation using fluorescence-labelled peptides as substrate at 9 uM after 90 mins by microfluidic peptide phosphorylation assay
[14] = molecular target: Tyrosine-protein kinase Fyn (Homo sapiens) (UniProt P06241); test: Inhibition of human full length FYN expressed in baculovirus assessed as substrate phosphorylation using fluorescence-labelled peptides as substrate at 70 uM after 90 mins by microfluidic peptide phosphorylation assay
[15] = molecular target: Hepatocyte growth factor receptor (Homo sapiens) (UniProt P08581); test: Inhibition of human MET cytoplasmic domain expressed in baculovirus assessed as substrate phosphorylation using fluorescence-labelled peptides as substrate at 70 uM after 90 mins by microfluidic peptide phosphorylation assay

Chain of Calcium/calmodulin-dependent protein kinase type II subunit beta (Homo sapiens) (Q13554 whole entry, the tested form may be a part): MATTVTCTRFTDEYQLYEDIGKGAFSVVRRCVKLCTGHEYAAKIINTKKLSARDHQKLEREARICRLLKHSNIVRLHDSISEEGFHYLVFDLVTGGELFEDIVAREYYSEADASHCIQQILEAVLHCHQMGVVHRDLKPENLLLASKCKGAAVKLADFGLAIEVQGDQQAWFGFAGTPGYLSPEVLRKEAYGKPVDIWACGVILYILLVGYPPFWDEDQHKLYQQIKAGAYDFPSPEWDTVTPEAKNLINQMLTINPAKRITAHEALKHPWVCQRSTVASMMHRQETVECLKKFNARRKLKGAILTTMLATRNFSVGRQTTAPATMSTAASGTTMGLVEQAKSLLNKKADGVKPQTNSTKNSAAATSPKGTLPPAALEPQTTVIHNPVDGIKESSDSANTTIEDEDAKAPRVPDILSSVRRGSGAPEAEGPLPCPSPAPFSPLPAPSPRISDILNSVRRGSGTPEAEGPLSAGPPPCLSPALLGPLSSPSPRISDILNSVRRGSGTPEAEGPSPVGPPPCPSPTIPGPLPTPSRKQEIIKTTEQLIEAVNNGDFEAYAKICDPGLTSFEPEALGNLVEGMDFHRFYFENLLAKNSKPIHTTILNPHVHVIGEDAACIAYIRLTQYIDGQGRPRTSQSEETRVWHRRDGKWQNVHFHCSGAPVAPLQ
Chain of Tyrosine-protein kinase Fer (Homo sapiens) (P16591 whole entry, looked up, the tested form may be a part): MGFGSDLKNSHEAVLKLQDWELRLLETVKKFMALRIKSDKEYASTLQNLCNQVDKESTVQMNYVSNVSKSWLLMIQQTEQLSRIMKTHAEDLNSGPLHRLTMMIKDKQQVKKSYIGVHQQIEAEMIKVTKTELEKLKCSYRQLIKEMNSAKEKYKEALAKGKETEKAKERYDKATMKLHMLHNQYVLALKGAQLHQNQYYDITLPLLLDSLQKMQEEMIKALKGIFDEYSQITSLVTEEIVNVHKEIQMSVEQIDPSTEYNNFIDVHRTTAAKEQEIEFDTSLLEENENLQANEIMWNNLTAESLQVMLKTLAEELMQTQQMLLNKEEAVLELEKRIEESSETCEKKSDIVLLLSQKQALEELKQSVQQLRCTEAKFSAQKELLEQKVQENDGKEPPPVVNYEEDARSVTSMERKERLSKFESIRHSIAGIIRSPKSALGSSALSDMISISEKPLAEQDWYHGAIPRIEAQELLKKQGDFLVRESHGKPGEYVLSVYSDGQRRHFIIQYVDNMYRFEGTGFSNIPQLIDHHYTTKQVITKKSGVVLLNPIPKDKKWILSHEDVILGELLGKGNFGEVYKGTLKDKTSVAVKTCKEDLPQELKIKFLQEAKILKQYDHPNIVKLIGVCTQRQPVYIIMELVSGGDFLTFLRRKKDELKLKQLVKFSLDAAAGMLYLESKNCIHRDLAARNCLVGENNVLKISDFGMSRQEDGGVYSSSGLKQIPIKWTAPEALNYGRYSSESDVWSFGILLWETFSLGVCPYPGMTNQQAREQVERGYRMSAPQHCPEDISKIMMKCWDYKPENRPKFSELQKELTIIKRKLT
Chain of Tyrosine-protein kinase ABL1 (Homo sapiens) (P00519 whole entry): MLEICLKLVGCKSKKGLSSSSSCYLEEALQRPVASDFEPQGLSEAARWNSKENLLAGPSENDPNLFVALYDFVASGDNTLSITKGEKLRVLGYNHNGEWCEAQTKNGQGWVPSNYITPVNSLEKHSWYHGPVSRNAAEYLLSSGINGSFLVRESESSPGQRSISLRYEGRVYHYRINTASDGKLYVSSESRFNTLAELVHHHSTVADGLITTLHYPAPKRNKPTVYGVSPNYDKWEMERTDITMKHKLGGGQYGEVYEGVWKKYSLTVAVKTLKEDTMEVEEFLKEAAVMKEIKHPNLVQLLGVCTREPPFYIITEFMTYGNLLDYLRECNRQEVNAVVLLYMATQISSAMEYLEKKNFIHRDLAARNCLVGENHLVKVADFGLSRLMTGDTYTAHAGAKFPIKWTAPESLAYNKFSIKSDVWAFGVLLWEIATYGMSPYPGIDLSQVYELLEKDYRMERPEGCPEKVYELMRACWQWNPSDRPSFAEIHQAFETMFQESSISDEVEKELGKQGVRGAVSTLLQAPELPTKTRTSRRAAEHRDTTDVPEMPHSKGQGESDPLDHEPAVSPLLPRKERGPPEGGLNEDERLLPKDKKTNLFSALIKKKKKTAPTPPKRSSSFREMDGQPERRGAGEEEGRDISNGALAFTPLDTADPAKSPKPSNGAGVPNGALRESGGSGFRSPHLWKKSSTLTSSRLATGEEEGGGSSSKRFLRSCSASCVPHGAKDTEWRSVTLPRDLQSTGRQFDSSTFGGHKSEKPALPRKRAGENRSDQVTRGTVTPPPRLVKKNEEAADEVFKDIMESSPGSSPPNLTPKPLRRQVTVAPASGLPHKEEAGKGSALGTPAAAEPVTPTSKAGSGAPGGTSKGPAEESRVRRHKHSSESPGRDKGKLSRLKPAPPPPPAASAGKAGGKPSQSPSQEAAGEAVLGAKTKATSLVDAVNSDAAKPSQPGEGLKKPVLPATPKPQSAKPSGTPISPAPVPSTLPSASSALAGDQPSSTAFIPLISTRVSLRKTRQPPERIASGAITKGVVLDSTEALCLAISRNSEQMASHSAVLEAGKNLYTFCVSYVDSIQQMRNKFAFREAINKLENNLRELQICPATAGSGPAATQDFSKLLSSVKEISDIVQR
Chain of Fibroblast growth factor receptor 4 (Homo sapiens) (P22455 22-802 limits assumed): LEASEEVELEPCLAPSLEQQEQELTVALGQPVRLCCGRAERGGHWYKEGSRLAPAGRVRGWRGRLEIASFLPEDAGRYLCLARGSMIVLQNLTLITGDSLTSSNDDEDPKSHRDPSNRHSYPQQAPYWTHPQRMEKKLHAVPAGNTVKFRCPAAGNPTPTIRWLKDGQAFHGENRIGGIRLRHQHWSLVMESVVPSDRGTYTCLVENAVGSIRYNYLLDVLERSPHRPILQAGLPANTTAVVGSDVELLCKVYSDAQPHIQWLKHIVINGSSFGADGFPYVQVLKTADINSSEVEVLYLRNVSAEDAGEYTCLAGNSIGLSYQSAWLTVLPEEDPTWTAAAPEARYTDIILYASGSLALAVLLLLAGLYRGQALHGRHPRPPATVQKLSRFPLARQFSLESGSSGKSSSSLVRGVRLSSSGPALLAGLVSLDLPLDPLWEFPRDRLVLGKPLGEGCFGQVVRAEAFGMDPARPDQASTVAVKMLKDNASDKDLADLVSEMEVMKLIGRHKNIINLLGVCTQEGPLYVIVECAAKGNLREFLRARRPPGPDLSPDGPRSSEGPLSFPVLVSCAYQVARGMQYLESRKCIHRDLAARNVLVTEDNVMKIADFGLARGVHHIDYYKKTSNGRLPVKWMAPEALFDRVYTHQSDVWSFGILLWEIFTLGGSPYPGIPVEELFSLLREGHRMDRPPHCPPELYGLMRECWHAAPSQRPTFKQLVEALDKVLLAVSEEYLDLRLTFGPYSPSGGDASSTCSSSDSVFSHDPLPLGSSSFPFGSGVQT
Chain of Mitogen-activated protein kinase 14 (Homo sapiens) (Q16539 whole entry, the tested form may be a part): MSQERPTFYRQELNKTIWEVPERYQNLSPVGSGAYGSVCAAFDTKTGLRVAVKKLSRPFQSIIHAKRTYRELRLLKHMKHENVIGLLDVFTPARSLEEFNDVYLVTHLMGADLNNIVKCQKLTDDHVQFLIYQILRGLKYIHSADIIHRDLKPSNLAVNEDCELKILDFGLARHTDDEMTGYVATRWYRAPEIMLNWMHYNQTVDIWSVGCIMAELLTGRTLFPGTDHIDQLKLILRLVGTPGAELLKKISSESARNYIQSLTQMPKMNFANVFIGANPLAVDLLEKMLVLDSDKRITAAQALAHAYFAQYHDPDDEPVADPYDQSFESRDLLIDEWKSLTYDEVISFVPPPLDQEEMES
Chain of Fibroblast growth factor receptor 2 (Homo sapiens), P21802 [N549H] (P21802 whole entry N549H, the tested form may be a part): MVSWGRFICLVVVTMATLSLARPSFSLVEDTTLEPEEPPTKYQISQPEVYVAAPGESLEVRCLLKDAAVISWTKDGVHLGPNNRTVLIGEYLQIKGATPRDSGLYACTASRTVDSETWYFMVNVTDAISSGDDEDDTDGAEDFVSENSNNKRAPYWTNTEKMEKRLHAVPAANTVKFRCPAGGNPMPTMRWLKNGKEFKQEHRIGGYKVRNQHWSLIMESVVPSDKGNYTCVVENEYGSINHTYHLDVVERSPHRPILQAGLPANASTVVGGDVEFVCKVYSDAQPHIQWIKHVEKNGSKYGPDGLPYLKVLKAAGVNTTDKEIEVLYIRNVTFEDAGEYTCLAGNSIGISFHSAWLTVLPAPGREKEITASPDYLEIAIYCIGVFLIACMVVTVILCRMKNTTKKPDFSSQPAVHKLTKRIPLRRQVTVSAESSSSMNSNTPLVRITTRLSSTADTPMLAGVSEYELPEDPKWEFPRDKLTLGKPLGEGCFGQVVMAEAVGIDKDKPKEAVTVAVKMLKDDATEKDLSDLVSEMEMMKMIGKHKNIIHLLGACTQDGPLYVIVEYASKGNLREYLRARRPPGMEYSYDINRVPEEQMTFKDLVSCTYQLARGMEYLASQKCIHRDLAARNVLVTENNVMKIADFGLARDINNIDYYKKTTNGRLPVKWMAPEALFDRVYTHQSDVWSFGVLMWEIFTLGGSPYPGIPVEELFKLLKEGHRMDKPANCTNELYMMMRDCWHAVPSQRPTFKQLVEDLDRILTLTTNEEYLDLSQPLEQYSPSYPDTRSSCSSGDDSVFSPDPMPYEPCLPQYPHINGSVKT
Chain of Aurora kinase B (Homo sapiens) (Q96GD4 whole entry): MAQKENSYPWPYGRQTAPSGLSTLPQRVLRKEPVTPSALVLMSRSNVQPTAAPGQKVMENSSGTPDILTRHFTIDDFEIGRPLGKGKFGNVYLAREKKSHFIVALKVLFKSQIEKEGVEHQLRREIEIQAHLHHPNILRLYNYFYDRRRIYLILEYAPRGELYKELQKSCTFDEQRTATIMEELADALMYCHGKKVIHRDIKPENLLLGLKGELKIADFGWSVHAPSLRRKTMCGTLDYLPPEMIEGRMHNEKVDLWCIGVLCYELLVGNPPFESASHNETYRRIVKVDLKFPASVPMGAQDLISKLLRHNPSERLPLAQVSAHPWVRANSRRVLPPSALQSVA

## NCC1CCN(c2ncnc3[nH]ccc23)CC1
[1]
  inhibition: 36.5%
[2]
  inhibition: 76%
[3]
  inhibition: 81%

## NC1CCN(c2ncnc3[nH]ccc23)CC1
[4]
  inhibition: 13.5%
[5]
  inhibition: 13.5%

## c1cnc2[nH]ccc2c1
[6]
  inhibition: 64.5%
[7]
  inhibition: 31.5%
[8]
  inhibition: 30%

## C[C@H](CN(C)C)Oc1nc(Nc2cc3cccc(Cl)c3cn2)cnc1C#N
[9]
  inhibition: 6%

## COC(=O)c1cnc(Nc2cnc(C#N)cn2)cc1NCC1CCNCC1
[10]
  inhibition: 1.5%

## c1nc(N2CCOCC2)c2nc[nH]c2n1
[11]
  inhibition: 89.5%
[12]
  inhibition: 0%

## NCC1CN(c2ncnc3[nH]c4cnccc4c23)CCO1 (stereo not given)
[13]
  inhibition: 4%

## CNCc1ccc(-c2ncnc3[nH]cnc23)cc1
[14]
  inhibition: 31.5%
[15]
  inhibition: 0%
